One series concerns the target T1, IR-β (Rattus norvegicus, UniProt P15127).
T1 construct: DHH105-treated adipocytes from SD rats; endogenous in cells; host or cells: adipocytes from SD rats
The series can be described thus: Phosphorylation of IR-β in adipocytes, immunoprecipitation and western blot. The class given is cell-based. The conditions noted are these: SD rat adipocytes, DHH105 2 h, vs untreated control. The protocol: Adipocytes treated with DHH105 for 2 h or insulin for 10 min were homogenized in 5 ml lysis buffer (20 mM Tris, pH 7.4, 1% SDS, 10% glycerol, 150 mM NaCl, 2 mM EDTA, 20 mM NaF, 1 mM NaVO4, 2 mM sodium pyrophosphate, protease inhibitor cocktail, and phosphatase inhibitor cocktail) with a teflon pestle (15 strokes). Homogenized adipocytes were sonicated for 3 min and solubilized for 30 min. The homogenate was centrifuged at 3,000 g for 10 min at 4° C. The protein concentration of the lysate was determined by the Bradford method. After dilution (1 μg/μl protein concentration), the lysates were incubated with anti-insulin receptor-β (IR-β) antibody (Upstate Biotech, Charlottesville, Va.) or anti-IRS-1 antibody (Upstate Biotech) overnight at 4° C. Protein A Sepharose beads (100 μl, Amersham Pharmacia Biotech) were added and the mixture was gently rocked for 2 h at 4° C. […] The membranes were washed and the immunoreactive proteins were detected with an enhanced chemoluminescence western blot detection kit (Amersham Pharmacia Biotech). To examine whether DHH105 treatment increases autophosphorylation of the insulin receptor and its tyrosine kinase activity, the phosphorylation of IR-β and IRS-1 were measured by immunoprecipitation and western blot in DHH105-treated adipocytes from SD rats. […]
On the technique in general: A western blot detects proteins with antibodies after separation by electrophoresis.

For another series, the system named is diabetic ob/ob mice. As to the kind of experiment: Blood glucose and glucose tolerance test in diabetic ob/ob mice. The class given is in vivo, mouse. The text has this: (§1) Male C57BL/6 and C57BL/6 ob/ob mice were purchased from The Jackson Laboratory (Bar Harbor, Me.), and Sprague-Dawley (SD) rats were purchased from Charles River Laboratories (Wilmington, Mass.). The animals were maintained and bred under specific pathogen-free conditions and provided with sterile food and water ad libitum at the Animal Resources Centre, Faculty of Medicine, University of Calgary. The use and care of the animals used in this study were approved by the Animal Care Committee, Faculty of Medicine, University of Calgary.
DHH105 was dissolved in DMSO and emulsified in olive oil (1:50 v/v). […] Blood glucose levels were measured with a glucometer (One Touch Ultra, Lifescan, Milpitas, Calif.) every morning between 9:00–10:00 a.m. just before injection of DHH105.
(§2) To determine whether treatment with DHH105 can decrease the blood glucose level in STZ-induced diabetic C57BL/6 mice (blood glucose levels>300 mg/dl), mice were treated with DHH105 (150 mg/kd) daily for 2 weeks. […] Blood glucose levels were measured at 0, 15, 30, 60, and 120 min after glucose injection.
The blood glucose lowering effect was further determined in ob/ob mice, a model of type 2 diabetes. […]

The next series deals with T2, insulin receptor (Rattus norvegicus, UniProt P15127).
T2 construct: endogenous in cells; host or cells: isolated primary adipocytes (rat)
T2 sequence (P15127 27-759 limits assumed): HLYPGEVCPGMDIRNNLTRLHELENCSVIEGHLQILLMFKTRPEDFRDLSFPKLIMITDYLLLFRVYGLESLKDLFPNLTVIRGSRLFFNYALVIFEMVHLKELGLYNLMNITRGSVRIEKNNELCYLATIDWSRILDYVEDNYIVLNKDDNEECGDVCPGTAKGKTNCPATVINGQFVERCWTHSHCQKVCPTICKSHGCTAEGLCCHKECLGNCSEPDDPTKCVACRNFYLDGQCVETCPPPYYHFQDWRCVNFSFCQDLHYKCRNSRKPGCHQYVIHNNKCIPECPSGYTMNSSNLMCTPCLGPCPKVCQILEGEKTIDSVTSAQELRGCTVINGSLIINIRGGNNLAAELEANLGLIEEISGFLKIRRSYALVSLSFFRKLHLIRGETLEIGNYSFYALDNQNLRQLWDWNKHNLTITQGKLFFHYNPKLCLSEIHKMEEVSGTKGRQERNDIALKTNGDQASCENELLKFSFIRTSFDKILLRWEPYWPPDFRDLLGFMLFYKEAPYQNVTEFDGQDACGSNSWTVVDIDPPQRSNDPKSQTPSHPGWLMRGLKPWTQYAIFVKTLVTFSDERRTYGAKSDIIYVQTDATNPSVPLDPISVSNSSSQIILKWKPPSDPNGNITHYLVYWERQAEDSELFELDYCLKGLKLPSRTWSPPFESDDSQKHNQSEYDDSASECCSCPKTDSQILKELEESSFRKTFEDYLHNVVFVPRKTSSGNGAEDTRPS
T2 sequence (P15127 764-1383 partner limits assumed): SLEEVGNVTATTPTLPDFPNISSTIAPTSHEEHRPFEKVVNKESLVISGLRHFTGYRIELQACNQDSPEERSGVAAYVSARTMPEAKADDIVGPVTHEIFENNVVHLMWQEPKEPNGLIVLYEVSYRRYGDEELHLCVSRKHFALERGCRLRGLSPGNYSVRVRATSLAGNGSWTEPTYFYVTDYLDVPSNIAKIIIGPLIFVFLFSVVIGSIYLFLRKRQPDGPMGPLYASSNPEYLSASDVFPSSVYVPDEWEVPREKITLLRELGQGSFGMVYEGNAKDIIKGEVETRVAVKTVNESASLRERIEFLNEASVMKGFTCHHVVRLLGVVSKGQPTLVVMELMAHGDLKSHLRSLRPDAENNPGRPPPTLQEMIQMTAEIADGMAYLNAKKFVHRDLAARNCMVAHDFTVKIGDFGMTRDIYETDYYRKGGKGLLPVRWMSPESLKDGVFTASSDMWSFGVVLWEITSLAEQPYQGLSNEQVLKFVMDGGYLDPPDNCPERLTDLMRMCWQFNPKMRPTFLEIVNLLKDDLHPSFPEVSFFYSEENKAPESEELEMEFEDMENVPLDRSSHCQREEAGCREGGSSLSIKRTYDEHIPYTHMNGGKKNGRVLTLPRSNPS
The series can be described thus: Insulin binding assay ([125I]-insulin binding to adipocytes). The note with it: [125I]-insulin 0.1 ng/ml, 2 h. How it is done: To examine whether DHH105 binds to the insulin receptor and activates the insulin signal transduction pathway, [^125I]-insulin binding to adipocytes was measured in the presence of DHH105. Isolated adipocytes were incubated in KRH buffer for 1 h to remove residual insulin. Adipocytes were then washed three times and resuspended in KRH buffer. Adipocytes (2×10^5 cells/vial) were incubated with DHH105 or insulin in the presence of [^125I]-insulin (0.1 ng/ml; Perkin-Elmer Life and Analytical Sciences, Downers Grove, Ill.) for 2 h at 16° C. in a shaking bath. To measure non-specific binding, 50 μg of unlabelled insulin (Sigma) were added to cells along with [^125I]-insulin. After incubation, adipocytes were harvested by silicon oil and the radioactivity was measured.

For series [1], the system named is STZ-induced diabetic C57BL/6 mice. As to the kind of experiment: Blood glucose and glucose tolerance test in STZ-induced diabetic mice. The class given is in vivo, mouse. The conditions noted are these: 150 mg/kg i.p. daily, at 2 weeks after treatment.
Text: as §1
(§3) DHH105 was dissolved in DMSO and emulsified in olive oil (1:50 v/v). DHH105, at a dose of 150 mg/kg body weight (b.w.) in 100 μl, was injected intraperitoneally (i.p.) every day into diabetic ob/ob mice (blood glucose level>230 mg/dl) and STZ-treated diabetic C57BL/6 mice (blood glucose level>300 mg/dl). Control mice received the same amount of olive oil without DHH105. Blood glucose levels were measured with a glucometer (One Touch Ultra, Lifescan, Milpitas, Calif.) every morning between 9:00–10:00 a.m. just before injection of DHH105.
as §2

A short description of series [2]: Body weight and gross liver observation in DHH105-treated mice. The class given is in vivo, mouse. The protocol: as §3, with “First, the effect of DHH105 on the non-fasting blood glucose level in ob/ob mice, an animal model of type 2 diabetes, was examined in vivo. […] DHH105 was” for “DHH105 was”

T1 sequence (P15127 764-1383 limits assumed): as the sequence (P15127 764-1383 partner limits assumed) above
T1 sequence (P15127 27-759 limits assumed): as the sequence (P15127 27-759 limits assumed) above

`O=C(CCc1ccc(O)c(O)c1)OCc1cccc2ccccc12` [DHH105, 3,4-dihydroxyhydrocinnamic acid naphthalene methyl ester]: on IR-β, the “phosphorylation of IR-β” value is listed as “increased”. The “time after first injection at which blood glucose levels began to decrease” value with diabetic ob/ob mice (150 mg/kg i.p. daily) is 4 days. Further, the “blood glucose levels vs vehicle-treated control mice” value in the series on diabetic ob/ob mice (150 mg/kg i.p. daily for 2 weeks) was “significantly lower”. For the same compound, the “binding of [125I]-insulin to adipocytes, DHH105 together with insulin” value at insulin receptor (500 μM DHH105 plus insulin) is “further inhibited”. In addition, at insulin receptor (16° C.), the “binding of [125I]-insulin to adipocytes” value is “inhibited”. In addition, the blood glucose levels result in series [1] was “significantly decreased”. For the same compound, the “gross lesions of the liver” value in series [2] (DHH105-treated mice) was “no gross lesions”. The “body weight, treated vs untreated mice” value in series [2] (DHH105-treated vs untreated mice) was “no differences”.

These data come from US7192981B2, “3,4-dihydroxyhydrocinnamic acid derivative” (Bionutrigen Co., Ltd., priority 2005, dated 2007).
